These results are taken from ChEMBL document CHEMBL1201862, “PubChem BioAssay data set” (2004).

Assay [1] concerns T-cell. The experiment in a line: loss of vesicle association with mouse CD8+ T cells – mouse 2C CD8+ T cells, flow cytometry, dose response (AID 485284). Format: functional. For orientation: A flow cytometer gives signals particle by particle.
Assay [2] has as its target T1, Aminopeptidase N (Plasmodium falciparum FcB1/Columbia, UniProt O96935).
T1 sequence (O96935 whole entry): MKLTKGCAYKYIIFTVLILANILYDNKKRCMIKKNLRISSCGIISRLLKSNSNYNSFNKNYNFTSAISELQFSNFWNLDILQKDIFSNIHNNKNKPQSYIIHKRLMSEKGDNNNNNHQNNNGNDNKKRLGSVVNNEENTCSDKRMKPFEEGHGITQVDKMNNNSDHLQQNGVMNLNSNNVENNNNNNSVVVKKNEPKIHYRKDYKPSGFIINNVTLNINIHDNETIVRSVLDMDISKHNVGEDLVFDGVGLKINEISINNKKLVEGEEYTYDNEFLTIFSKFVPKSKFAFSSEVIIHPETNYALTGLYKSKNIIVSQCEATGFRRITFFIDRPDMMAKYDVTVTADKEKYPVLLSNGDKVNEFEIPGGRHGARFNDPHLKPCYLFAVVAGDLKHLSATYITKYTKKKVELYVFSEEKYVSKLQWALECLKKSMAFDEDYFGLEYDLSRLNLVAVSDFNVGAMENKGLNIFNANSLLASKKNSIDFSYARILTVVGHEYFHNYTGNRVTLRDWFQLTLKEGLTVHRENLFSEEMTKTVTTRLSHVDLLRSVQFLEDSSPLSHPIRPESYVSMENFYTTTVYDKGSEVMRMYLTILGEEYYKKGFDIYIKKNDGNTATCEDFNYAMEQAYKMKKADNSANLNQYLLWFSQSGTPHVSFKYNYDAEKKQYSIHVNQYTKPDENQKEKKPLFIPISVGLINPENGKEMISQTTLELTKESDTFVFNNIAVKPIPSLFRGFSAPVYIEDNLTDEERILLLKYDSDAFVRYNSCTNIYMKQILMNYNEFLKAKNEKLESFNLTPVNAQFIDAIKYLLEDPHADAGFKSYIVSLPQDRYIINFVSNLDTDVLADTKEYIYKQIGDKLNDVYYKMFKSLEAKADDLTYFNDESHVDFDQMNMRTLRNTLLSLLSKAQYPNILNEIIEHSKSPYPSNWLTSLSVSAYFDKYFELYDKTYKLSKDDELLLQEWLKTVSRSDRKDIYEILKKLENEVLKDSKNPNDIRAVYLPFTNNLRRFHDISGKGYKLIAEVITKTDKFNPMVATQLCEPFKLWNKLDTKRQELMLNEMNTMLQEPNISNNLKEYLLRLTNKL
As to the kind of experiment: malaria alanyl aminopeptidase activity blockers – biochemical, fluorogenic H-Leu-NHMec substrate, 1536-well (AID 1445). Also on record: species or system Plasmodium falciparum 3D7, 3D7.

Assay [3] has as its target T2, Runt-related transcription factor 1/Core-binding factor subunit beta (Homo sapiens, UniProt Q01196+Q13951). As to the kind of experiment: disruptors of Runt domain/CBFb-SMMHC interaction – biochemical, FRET, Cerulean-Runt, Venus-CBFb-SMMHC, uHTS, […] (AID 1434). Format: protein assay.
Assay [4] deals with T2, Runt-related transcription factor 1/Core-binding factor subunit beta. As to the kind of experiment: Runt domain/CBFb-SMMHC interaction disruptors – biochemical, TR-FRET (AID 1438). Format: protein assay. On the technique in general: Time-resolved FRET reads energy transfer from a long-lived donor to a nearby acceptor.
Assay [5] has as its target CAAX prenyl protease 2 (Saccharomyces cerevisiae S288c, UniProt Q03530). It is filed as biochemical.
Assay [6] addresses T3, Intestinal-type alkaline phosphatase (Homo sapiens, UniProt P09923). The experiment in a line: Dose Response confirmation of uHTS hits from a small molecule inhibitors of human intestinal alkaline phosphatase via a luminescent assay. [Related pubchem assays (depositor defined):AID2544, AID2574]. It is filed as functional.
Assay [7] deals with T3, Intestinal-type alkaline phosphatase. The experiment in a line: human intestinal alkaline phosphatase activators, dose response, biochemical, luminescence, uHTS hits (AID 463120). Format: functional.
The target in assay [8] is Phosphomannomutase 2 (Homo sapiens, UniProt O15305). The experiment in a line: Counter screen SAR assay for PMM2 inhibitors via a fluorescence intensity assay. [Related pubchem assays (depositor defined):AID1545, AID1574]. On the technique in general: Counterscreens check selectivity or assay interference.
Phosphomannomutase 2, sequence (O15305 whole entry): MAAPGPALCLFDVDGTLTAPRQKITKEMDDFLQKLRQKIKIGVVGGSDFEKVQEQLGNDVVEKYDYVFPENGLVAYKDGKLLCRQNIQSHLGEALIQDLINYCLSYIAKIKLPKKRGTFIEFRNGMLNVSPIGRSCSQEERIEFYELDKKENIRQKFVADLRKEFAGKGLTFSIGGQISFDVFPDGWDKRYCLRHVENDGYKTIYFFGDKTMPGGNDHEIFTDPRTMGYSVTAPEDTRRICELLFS
The target in assay [9] is Phosphoethanolamine/phosphocholine phosphatase (Homo sapiens, UniProt Q8TCT1). As to the kind of experiment: SAR assay for compounds that inhibit PHOSPHO1. [Related pubchem assays (depositor defined):AID1545, AID1565, AID1574].
Phosphoethanolamine/phosphocholine phosphatase, sequence (Q8TCT1 whole entry): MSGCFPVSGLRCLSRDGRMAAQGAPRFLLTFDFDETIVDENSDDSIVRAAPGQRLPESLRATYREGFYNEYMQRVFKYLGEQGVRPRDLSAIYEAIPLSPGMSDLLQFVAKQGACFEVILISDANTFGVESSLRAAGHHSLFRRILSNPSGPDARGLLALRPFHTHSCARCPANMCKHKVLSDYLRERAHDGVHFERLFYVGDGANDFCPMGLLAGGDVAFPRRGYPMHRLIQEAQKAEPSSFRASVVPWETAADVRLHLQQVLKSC
Assay [10] deals with Diphosphomevalonate decarboxylase (Streptococcus pneumoniae serotype 2 (strain D39 / NCTC 7466), UniProt Q9FD53). As to the kind of experiment: diphosphomevalonate decarboxylase inhibitor confirmation – biochemical, cuvette format, coupled NADH fluorescence (AID 1028). It is filed as functional.
Diphosphomevalonate decarboxylase, sequence (Q9FD53 whole entry): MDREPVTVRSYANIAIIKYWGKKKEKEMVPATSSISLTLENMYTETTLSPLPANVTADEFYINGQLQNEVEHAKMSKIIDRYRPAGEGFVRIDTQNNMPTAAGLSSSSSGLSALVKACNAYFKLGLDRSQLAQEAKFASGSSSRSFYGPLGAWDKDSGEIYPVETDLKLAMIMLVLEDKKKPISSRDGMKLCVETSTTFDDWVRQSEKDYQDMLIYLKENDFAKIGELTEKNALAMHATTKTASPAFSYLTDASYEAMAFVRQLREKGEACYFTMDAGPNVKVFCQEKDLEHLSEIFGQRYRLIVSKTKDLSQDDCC
Assay [11] deals with T4, Alkaline phosphatase, tissue-nonspecific isozyme (Homo sapiens, UniProt P05186).
T4 sequence (P05186 whole entry): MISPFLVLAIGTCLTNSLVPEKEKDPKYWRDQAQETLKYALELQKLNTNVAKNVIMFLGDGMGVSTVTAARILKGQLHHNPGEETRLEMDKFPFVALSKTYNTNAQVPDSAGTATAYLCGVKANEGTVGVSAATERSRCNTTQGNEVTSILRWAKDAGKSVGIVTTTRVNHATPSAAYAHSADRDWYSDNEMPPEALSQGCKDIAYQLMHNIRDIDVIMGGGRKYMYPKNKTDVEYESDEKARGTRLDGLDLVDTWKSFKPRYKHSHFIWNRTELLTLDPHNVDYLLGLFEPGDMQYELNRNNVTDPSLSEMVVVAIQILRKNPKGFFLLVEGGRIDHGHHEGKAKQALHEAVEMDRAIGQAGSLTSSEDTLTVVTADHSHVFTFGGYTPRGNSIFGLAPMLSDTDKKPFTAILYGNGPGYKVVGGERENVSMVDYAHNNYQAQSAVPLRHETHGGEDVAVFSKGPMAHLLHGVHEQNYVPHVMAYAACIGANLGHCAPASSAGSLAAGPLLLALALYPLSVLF
As to the kind of experiment: potency against alkaline phosphatase TNAP – biochemical, luminescent, dose response, SAR follow-up (AID 1056).

Molecules are shown by their SMILES. Active and inactive are the calls of the source.

T2 sequence (Q01196 whole entry, the tested form may be a part): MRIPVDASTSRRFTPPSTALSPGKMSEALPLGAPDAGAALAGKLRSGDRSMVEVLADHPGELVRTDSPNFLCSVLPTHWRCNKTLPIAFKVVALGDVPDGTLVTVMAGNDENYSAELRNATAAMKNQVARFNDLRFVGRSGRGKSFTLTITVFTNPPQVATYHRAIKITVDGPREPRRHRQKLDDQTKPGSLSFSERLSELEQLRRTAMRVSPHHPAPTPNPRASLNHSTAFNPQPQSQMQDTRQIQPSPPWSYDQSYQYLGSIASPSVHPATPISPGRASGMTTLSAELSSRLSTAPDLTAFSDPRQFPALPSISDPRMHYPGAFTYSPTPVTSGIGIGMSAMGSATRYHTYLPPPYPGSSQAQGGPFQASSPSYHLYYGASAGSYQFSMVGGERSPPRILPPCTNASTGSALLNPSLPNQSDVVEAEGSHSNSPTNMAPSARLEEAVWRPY
T2 sequence (Q13951 whole entry, the tested form may be a part): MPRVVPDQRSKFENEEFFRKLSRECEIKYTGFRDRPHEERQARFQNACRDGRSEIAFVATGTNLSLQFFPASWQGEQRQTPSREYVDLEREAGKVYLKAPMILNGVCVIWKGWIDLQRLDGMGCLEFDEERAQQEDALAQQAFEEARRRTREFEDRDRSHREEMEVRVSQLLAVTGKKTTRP
T3 sequence (P09923 whole entry): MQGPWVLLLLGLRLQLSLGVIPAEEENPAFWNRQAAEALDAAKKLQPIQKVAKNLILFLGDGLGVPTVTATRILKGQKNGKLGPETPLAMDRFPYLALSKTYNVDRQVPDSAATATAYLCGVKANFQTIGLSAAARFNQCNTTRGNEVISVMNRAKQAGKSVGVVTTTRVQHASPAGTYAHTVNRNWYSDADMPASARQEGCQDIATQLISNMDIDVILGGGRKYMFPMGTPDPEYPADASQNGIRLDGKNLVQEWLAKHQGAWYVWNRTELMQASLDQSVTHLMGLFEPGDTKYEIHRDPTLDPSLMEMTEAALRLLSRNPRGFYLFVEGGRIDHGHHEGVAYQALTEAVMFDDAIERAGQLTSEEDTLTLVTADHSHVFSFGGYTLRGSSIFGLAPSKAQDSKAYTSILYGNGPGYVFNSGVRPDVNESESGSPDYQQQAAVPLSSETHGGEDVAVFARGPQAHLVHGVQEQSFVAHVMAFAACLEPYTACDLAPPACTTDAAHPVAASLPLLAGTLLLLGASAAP
CAAX prenyl protease 2, sequence (Q03530 whole entry): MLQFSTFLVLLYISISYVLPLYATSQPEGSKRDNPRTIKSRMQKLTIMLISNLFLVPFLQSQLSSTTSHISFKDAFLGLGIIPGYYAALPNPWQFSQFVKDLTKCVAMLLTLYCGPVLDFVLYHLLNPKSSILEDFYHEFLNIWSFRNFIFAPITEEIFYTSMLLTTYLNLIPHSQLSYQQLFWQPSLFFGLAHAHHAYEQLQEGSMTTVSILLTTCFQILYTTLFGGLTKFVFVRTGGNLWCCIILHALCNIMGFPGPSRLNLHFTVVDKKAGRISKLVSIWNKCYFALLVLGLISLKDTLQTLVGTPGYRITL

With `COc1ccc(C2=CC(=O)CC(c3ccc(OC)cc3)C2)cc1` (stereo unspecified), the EC50 in assay [1] was 4.09 µM (active).

Regarding `CC(C)OCCCn1c(-c2ccco2)nc2nc3ccccc3nc21`, the IC50 in [2] is 92.6 µM (active); in assay [3], 7.07 µM (active); in assay [4], > 100 µM (inactive).

On to `CCN(CC)CCN(C(=O)c1cc2ccccc2cc1OC)c1nc2ccc(F)cc2s1`, for which the AC50 in assay [5] was 6.98 µM (active).

In the case of `CCC(OC(=O)C1=Cc2ccccc2OC1)C(=O)NC1CCCC1` (stereo unspecified), the IC50 in assay [6] was > 100 µM (inactive). In addition, the EC50 in [7] was > 100 µM (inactive).

As to `CN(C)C(=O)c1cccc(-n2sc3ccccc3c2=O)c1`, the IC50 in assay [8] was 76.4 µM (active); in assay [9], 0.139 µM (active); in assay [10], 24.4 µM (active); in assay [11] it was > 100 µM (inactive).

Usually EC50 stands for the midpoint of the concentration-response curve. The term IC50 denotes the concentration needed to halve the response being measured. A word on the AC50: it is the concentration at which the activity in the assay is half-maximal.
